The assay concerns the target T1, Cav3.2 T-type calcium channel (Homo sapiens, UniProt O95180).
T1 construct: gene CACNA1H
The assay can be described thus: whole-cell patch clamp, tsA-201 cells transiently expressing Cav3.[…]; partial block (plateau about […]). It counts as cell-based.

T1 sequence (O95180 whole entry): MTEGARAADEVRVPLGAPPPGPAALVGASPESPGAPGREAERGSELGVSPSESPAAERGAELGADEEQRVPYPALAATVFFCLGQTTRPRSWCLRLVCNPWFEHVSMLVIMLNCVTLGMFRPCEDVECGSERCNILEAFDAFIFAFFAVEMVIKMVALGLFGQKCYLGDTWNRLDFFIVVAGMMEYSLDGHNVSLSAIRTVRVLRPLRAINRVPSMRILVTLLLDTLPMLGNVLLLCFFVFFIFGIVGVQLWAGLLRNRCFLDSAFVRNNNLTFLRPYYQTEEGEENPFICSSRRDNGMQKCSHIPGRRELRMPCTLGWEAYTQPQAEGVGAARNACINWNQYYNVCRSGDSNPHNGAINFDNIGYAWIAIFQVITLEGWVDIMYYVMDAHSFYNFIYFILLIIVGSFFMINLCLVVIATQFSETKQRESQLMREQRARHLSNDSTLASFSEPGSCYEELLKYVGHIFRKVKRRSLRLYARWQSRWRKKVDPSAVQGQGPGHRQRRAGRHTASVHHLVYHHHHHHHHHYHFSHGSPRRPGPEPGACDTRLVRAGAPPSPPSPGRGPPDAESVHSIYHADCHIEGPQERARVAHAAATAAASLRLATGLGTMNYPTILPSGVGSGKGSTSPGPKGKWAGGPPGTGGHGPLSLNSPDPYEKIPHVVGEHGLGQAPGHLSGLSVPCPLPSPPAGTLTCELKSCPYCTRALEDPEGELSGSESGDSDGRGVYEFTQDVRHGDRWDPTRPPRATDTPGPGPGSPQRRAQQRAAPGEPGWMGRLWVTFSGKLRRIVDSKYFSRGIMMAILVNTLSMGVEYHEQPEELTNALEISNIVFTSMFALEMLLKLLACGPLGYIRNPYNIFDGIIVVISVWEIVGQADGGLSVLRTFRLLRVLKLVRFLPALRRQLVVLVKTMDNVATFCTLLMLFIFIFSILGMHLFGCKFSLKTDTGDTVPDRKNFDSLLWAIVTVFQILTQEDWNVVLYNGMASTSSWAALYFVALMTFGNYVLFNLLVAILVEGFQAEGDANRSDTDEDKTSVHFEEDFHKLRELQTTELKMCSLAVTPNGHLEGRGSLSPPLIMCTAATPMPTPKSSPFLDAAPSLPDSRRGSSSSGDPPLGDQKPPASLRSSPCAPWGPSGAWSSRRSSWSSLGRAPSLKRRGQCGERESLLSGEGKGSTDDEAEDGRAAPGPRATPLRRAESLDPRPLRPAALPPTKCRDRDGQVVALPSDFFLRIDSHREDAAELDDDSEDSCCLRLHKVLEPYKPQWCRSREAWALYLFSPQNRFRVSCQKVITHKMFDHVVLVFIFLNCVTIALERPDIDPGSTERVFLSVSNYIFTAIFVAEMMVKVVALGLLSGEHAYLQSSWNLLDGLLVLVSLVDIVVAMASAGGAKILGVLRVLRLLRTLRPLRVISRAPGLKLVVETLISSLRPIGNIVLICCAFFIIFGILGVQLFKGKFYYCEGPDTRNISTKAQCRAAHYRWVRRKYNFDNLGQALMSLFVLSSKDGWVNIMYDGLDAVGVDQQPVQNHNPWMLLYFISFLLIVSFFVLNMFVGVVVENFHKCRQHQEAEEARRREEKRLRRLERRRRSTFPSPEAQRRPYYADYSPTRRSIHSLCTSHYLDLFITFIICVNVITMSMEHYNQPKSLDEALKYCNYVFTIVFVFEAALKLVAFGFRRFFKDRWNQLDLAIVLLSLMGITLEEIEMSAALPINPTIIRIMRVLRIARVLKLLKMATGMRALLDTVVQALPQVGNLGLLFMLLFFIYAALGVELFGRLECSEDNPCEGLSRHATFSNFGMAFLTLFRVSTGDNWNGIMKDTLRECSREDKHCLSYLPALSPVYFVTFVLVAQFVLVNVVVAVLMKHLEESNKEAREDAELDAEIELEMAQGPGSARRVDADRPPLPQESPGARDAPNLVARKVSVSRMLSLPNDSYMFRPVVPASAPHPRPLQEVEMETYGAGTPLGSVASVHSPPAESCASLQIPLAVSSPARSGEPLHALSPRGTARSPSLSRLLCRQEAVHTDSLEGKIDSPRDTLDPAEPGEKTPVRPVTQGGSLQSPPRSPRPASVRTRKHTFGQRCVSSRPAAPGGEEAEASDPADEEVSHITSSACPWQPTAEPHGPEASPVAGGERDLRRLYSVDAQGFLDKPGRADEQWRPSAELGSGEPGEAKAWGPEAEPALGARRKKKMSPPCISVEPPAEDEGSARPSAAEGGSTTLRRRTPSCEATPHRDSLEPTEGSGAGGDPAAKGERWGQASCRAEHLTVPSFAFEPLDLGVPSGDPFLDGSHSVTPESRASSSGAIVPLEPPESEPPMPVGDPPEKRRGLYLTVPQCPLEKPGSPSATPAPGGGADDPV

As to `CC(C)=CCC[C@](C)(O)[C@@H]1CC=C(C)CC1` [alpha-bisabolol], the half-inhibitory concentration (IC50) was found to be 4.5 ± 1.1 µM.

In the case of `C=C1C2CCC(C2)C1(C)C` (centres unmarked) [camphene], the IC50 amounted to 7.7 ± 1.8 µM.

Source of the values: publication PMC8591808 (Molecular Brain, 2021).
